Literature values, collected in PubChem BioAssay AID1259409 (Chemical Carcinogenesis Research Information System (CCRIS), 2018).
“And” between values parts separate entries of the source, which are not always exact repeats. Identical values can stand only once.

Tested on: rodent chemically induced tumor inhibition, incidence and multiplicity
Experiment: CCRIS tumor inhibitor studies
[1] = Carcinogen: BENZO[A]PYRENE, 50-32-8, Dose [Inhibitor]: 0.03 MMOL/G OF DIET DAILY STARTING 7 D BEFORE AND CONTINUING THROUGH 3 D AFTER CARCINOGEN TREATMENT FOLLOWED BY OBSERVAT, Route [Inhibitor]: ORAL, Species: MOUSE, Strain/Sex: ICR/FEMALE, Target Tissue: Type of Lesion: FORESTOMACH: NEOPLASM, Dose [Carcinogen]: 1 MG IN 0.2 ML CORN OIL 2/WK FOR 4 WK, Promoter: NONE USED

SMILES: Clc1c(Cl)c(Cl)c2c(c1Cl)Oc1c(Cl)c(Cl)c(Cl)c(Cl)c1O2
- tumour outcome (control, treated, inhibition, significance) (Carcinogen: 7,12-DIMETHYLBENZ[A]ANTHRACENE, 57-97-6, Dose [Inhibitor]: 0, 17 NMOL 2/WK APPLIED 1 HR PRIOR TO EACH PROMOTER DOSE FOR 20 WK (STUDY DURATION: 21 WK), Route [Inhibitor]: DERMAL, Species: MOUSE, Target Tissue: Type of Lesion: SKIN: TUMOR, Dose [Carcinogen]: 390 NMOL ONCE, Promoter: 12-O-TETRADECANOYLPHORBOL-13-ACETATE, 16561-29-8): 100%, 87%, 13%, not calculated

SMILES: CC(C)=CCC/C(C)=C/CO
- tumour outcome (control, treated, inhibition, significance) (Carcinogen: 7,12-DIMETHYLBENZ[A]ANTHRACENE, 57-97-6, Dose [Inhibitor]: 0, 36 MMOL/KG IN DIET FOR 24 WK BEGINNING 2 WK PRIOR TO CARCINOGEN DOSE (STUDY DURATION: 24 WK), Route [Inhibitor]: ORAL, Species: RAT, Strain/Sex: SPRAGUE-DAWLEY/FEMALE, Target Tissue: Type of Lesion: MAMMARY GLAND: TUMOR, Dose [Carcinogen]: 65 MG/KG BW ONCE, Promoter: NONE USED): 91%, 81%, 11%, not significant

SMILES: C[S+](C)CC(=O)[O-]
- tumour outcome (control, treated, inhibition, significance) (Carcinogen: 7,12-DIMETHYLBENZ[A]ANTHRACENE, 57-97-6, Dose [Inhibitor]: 0, 0.005 MOL/KG DIET BEGINNING 2 WK PRIOR TO CARCINOGEN AND CONTINUED FOR STUDY DURATION (STUDY DURATION: 25 WK), Route [Inhibitor]: ORAL, Species: RAT, Strain/Sex: CD-1/FEMALE, Target Tissue: Type of Lesion: MAMMARY GLAND: ADENOCARCINOMA, Dose [Carcinogen]: 10 MG ONCE, Promoter: NONE USED): 20/25 (80%), 19/25 (76%), 5%, not significant
- tumour outcome (control, treated, inhibition, significance) (Carcinogen: 7,12-DIMETHYLBENZ[A]ANTHRACENE, 57-97-6, Dose [Inhibitor]: 0, 0.01 MOL/KG DIET BEGINNING 2 WK PRIOR TO CARCINOGEN AND CONTINUED FOR STUDY DURATION (STUDY DURATION: 25 WK), Route [Inhibitor]: ORAL, Species: RAT, Strain/Sex: CD-1/FEMALE, Target Tissue: Type of Lesion: MAMMARY GLAND: ADENOCARCINOMA, Dose [Carcinogen]: 10 MG ONCE, Promoter: NONE USED): 20/25 (80%), 21/25 (84%), -5%, not significant
- tumour outcome (control, treated, inhibition, significance) (Carcinogen: 7,12-DIMETHYLBENZ[A]ANTHRACENE, 57-97-6, Dose [Inhibitor]: 0, 0.02 MOL/KG DIET BEGINNING 2 WK PRIOR TO CARCINOGEN AND CONTINUED FOR STUDY DURATION (STUDY DURATION: 25 WK), Route [Inhibitor]: ORAL, Species: RAT, Strain/Sex: CD-1/FEMALE, Target Tissue: Type of Lesion: MAMMARY GLAND: ADENOCARCINOMA, Dose [Carcinogen]: 10 MG ONCE, Promoter: NONE USED): 20/25 (80%), 18/25 (72%), 10%, not significant

SMILES: C[C@]12C[C@H](O)[C@H]3[C@@H](CCC4=CC(=O)CC[C@@]43C)[C@@H]1CC[C@@H]2C(=O)CO
- tumour outcome (control, treated, inhibition, significance) (Dose [Inhibitor]: 0, 1.5 MG 2/WK FOR 10 WK (STUDY DURATION: 65 WK), Route [Inhibitor]: INTRAMUSCULAR, Species: RAT, Strain/Sex: F344/MALE, Target Tissue: Type of Lesion: LIVER: HEPATOCELLULAR CARCINOMA, Dose [Carcinogen]: 100 UG 2/WK FOR 10 WK, Promoter: NONE USED): 12/13 (92%), 12/23 (52%), 43%, p<0.02

SMILES: Cc1cc(C)c(C)c(O)c1C
- tumour outcome (control, treated, inhibition, significance) [1]: 97%, 88%, 9%, not significant and 94%, 89%, 5%, not significant

SMILES: CCCCCc1ccccc1
- tumour outcome (control, treated, inhibition, significance) (Carcinogen: 4-(METHYLNITROSAMINO)-1-(3-PYRIDYL)-1-BUTANONE, 64091-91-4, Dose [Inhibitor]: 0, 25 UMOL IN 0.1 ML CORN OIL ONCE 2 HR PRIOR TO CARCINOGEN DOSE (STUDY DURATION: 16 WK), Route [Inhibitor]: GAVAGE, Species: MOUSE, Strain/Sex: STRAIN-A/FEMALE, Target Tissue: Type of Lesion: LUNG: TUMOR, Dose [Carcinogen]: 10 UMOL IN 0.1 ML SALINE ONCE, Promoter: NONE USED): 100%, 95%, 5%, not significant

SMILES: CC(C)(C)c1cc(C(C)(C)C)c(O)c(C(C)(C)C)c1
- tumour outcome (control, treated, inhibition, significance) [1]: 100%, 93%, 7%, not significant
